Data taken from US10968190B2, “Processes for preparing oxathiazin-like compounds” (GEISTLICH PHARMA AG, priority 2014, dated 2021).
Values after ≈ are worked out from the molar mass of the structure shown. Like-named read-outs stand apart in the source and are kept apart here.

How the values were obtained:
[1] = tested on: cancers identified herein; assay: Administration to patients having cancers (Example 5); format: in vivo; settings: Example 5, present tense
Method: Each of these compounds is administered with Vitamin D3, a derivative, metabolite or analog thereof and the combination is found to increase the anti-tumor effects of the compounds.

[2] = tested on: multicellular pancreatic tumor (Panc Tul or BxPC-3) spheroids; assay: Pancreatic stem cell-like multicellular spheroid toxicity assay; format: cell-based; settings: taurolidine 500 μM, compound 2250 1000 μM, 48 hours
Excerpt: Multicellular spheroids are composed of tumor cells growing in a 3-dimensional structure stimulating the growth, micro-environmental conditions and stem cell-like characteristics of real tumors. The multicellular tumor spheroid (MCTS) model compensates for many of the deficiencies seen in monolayer cultures. Spheroids on the scale of 200-500 μm develop chemical gradients of oxygen, nutrients, and catabolites, while having morphological and functional features similar to tumors. Therefore, assays utilizing the MCTS model allow for the assessment of drug penetration and are more predictive of in vivo success compared with monolayer cultures. MCTS assays are a tumor model system of intermediate complexity between standard monolayer and tumors in vivo.
Pancreatic tumor cells (Panc Tu-1, BxPC-3, Mia Paca-2, ASPC1) and pancreatic primary tumor cells (Bo80) were seeded in ultra-low adhesion plates in special stem cell media.
Pancreatic tumor cells (ASPC1, Mia Paca-2, Panc Tul, BxPC-3) and pancreatic primary tumor cells (Bo80) were raised in monolayer culture before seeding in ultra low adhesion plates under conditions of special stem cell media to form multicellular spheroids and passed through a cell strainer to exclude aggregates. […]

[3] = tested on: human glioma cell line LN-229; assay: Cytotoxicity assay in LN-229 cells (crystal violet); format: cell-based; settings: for OD (absorbance at 540 nm; high values = high cell viability): 24 h
Method: Cell lines: The human glioma cell line LN-229 was used as described previously (Rodak et al. 2005) as well as the human colon adenocarcinoma cell line SW480.
Cytotoxicity assay: Dissociated LN-229 cells were seeded into 96-well plates at a density of 10^4 cells per well in 100 μl of culture medium. […] Triplicate cultures were prepared for each sample. After 24 h of incubation at […], the remaining adherent viable cells were stained using crystal violet as described (Rodack et al. 2005). Cell viability was determined by measuring the absorbancy at 540 nm. The results are expressed as killing rate given by the difference between 100% of cells and percentage of cells surviving. EC50 values correspond to the concentration inducing 50% cell death.

[4] = tested on: pancreatic primary tumors (Bo 70); assay: Xenograft model of pancreatic primary tumors Bo 70; format: in vivo; settings: Bo 70, observed for 23 days
Excerpt: (§1) However, the differences in tumor volumes were not statistically relevant, likely due to the short duration of the study and the slow growth rate of the tumors.

[5] = tested on: cancer stem cells (CSC) derived from four glioblastoma patients; assay: Cytotoxicity in cancer stem cells from glioblastoma patients; format: cell-based, human; settings: for Cytotoxicity EC50, Mean ± SD: mean of CSCs from four glioblastoma patients
Method: Tissue samples from high grade gliomas WHO grade IV from newly diagnosed patients (medium age of 54±10 years) were minced mechanically, digested enzymatically and the dissociated cells were filtered. The isolated tumor cells were cultured as bulk cells. Cancer Stem Cells (CSCs) were isolated by the formation of neurospheres under neurosphere conditions (using neurobasal medium) from the murine SMA 560 glioma cell line or from freshly isolated human glioblastoma cells.
The number of remaining adherent cells were stained (crystal violet or Alamar Blue) and quantified by absorbance measurements (540 nm). Cell survival was expressed as the percentage of cells surviving relative to the number of cells surviving in untreated control cultures. The results are given as % killing rate or EC50 as the dose required for half-maximal cytotoxicity. Results
CSCs were isolated from glioblastoma tissue resected from four patients. […].

[6] = Half-life in human fresh blood in vitro by GC; format: in vitro ADME; settings: same test, human blood
[7] = tested on: murine SMA560 glioma cancer stem cells (CSC); settings: for sensitivity of CSCs versus corresponding glioma bulk cells, based on EC50: mouse SMA 560 CSCs vs bulk cells
Excerpt: (§2) The mouse SMA560 glioma cell line was used to provide tumor bulk cells and CSCs. […] Mouse CSCs were generated from the SMA560 glioma cell line and cultured for 7 days.

[8] = tested on: human glioblastoma bulk cells; settings: Rodak et al., J. Neurosurg., 102, 1055-68, 2005; cited from earlier work
[9] = Toxicity in mice during the tumor study; settings: 500 mg/kg i.p. on alternating days
Method: 1×10^7 tumor cells (PancTu-I and MiaPaca 2) were injected subcutaneously into the flank.
Tumors were grown to a size of 200 mm^3 before the treatment was started. Mice were treated on alternating days with 500 mg/kg*body weight (BW).

PancTu I tumor = assay: PancTu I subcutaneous tumor model in nude mice; format: in vivo, nude mice (NMRI-Foxn1 nu/nu); settings: 500 mg/kg i.p. on alternating days
tumor stem cells = assay: Killing of tumor stem cells in tissue culture in vitro; format: cell-based
MiaPaca2 tumor = assay: MiaPaca2 subcutaneous tumor model in nude mice; format: in vivo, nude mice (NMRI-Foxn1 nu/nu); settings: 500 mg/kg i.p. on alternating days
[10] = tested on: pancreatic primary tumors (Bo 73); assay: Xenograft model of pancreatic primary tumors Bo 73; format: in vivo; settings: Bo 73, observed for 15 days; differences not statistically relevant
Excerpt: as §1

[11] = tested on: murine SMA 560 bulk glioma cells; settings: SMA 560 bulk cells, 24 h and 48 h incubation
Excerpt: as §2

[12] = Portnow et al., Clin Cancer Res 15, 7092-7098, 2009; cited from earlier work

In the case of `O=S1(=O)CCOCO1` [A3], the “effectiveness in treating cancers in patients” value (from here on “effectiveness”) [1] is reported as “effective in treating such cancers” and the “safety for use in patients” value [1] is reported as “safe for use in patients”.

In the case of `O=S1(=O)CCN(CN2CCS(=O)(=O)NC2)CN1` [taurolidine], the “effect on pancreatic stem cell like multicellular spheroid cultures” value [2] is reported as “antineoplastic effect”, the “OD (absorbance at 540 nm; high values = high cell viability)” value (from here on “OD”) ([3]; 4 μg/ml) is reported as 1.530 and the “OD” value ([3]; 8 μg/ml) is reported as 1.478. The “OD” value ([3]; 15.5 μg/ml) was 1.434, the “OD” value ([3]; 31 μg/ml) was 1.132 and the “OD” value ([3]; 62.5 μg/ml) was 0.317. For the same molecule, the “OD” value ([3]; 250 μg/ml) was 0.165, the “OD” value ([3]; 500 μg/ml) was 0.098 and the “OD” value ([3]; 1000 μg/ml) was 0.109. The EC50 ([3]; Homo sapiens, LN-229, 24 h, LN-229 cells, 24 h incubation, read-out: EC50 (concentration inducing 50% cell death)) was 45 µg/mL (≈ 158 µM), the “EC50 (concentration inducing 50% cell death)” value ([3]; LN-229 cells, 24 h incubation) was 50 µg/mL (≈ 176 µM) and the “tumor volume compared to control” value [4] was “significantly reduce tumor volume compared to control”. The EC50 ([5]; Homo sapiens, 24 h, read-out: Cytotoxicity EC50 (μg/ml) 24 h, CSC GBM #4, 24 h) was 12.5 µg/mL, the EC50 ([5]; Homo sapiens, 24 h, read-out: Cytotoxicity EC50 (μg/ml) 24 h, CSC GBM #5, 24 h) was 14 µg/mL and the EC50 ([5]; Homo sapiens, 24 h, read-out: Cytotoxicity EC50, Mean ± SD, mean of CSCs from four glioblastoma patients, 24 h) was 13 ± 2 µg/mL. It also gave an EC50 ([5]; Homo sapiens, GBM3, 24 h, read-out: Cytotoxicity EC50 (μg/ml) 24 h, CSC GBM #3, 24 h) of 15 µg/mL, an EC50 ([5]; Homo sapiens, GBM6, 24 h, read-out: Cytotoxicity EC50 (μg/ml) 24 h, CSC GBM #6, 24 h) of 10 µg/mL and a half-life [6] of ~30 min. The “sensitivity of CSCs versus corresponding glioma bulk cells, based on EC50” value [7] was “about 3 fold”, the EC50 [8] was ~50 µg/mL (≈ 176 µM) and the “toxic effect on the mice during the study” value [9] was “no toxic effect”. For the same molecule, the “decrease of PancTu I tumor volume compared to control” value (PancTu I tumor) was “about 3 fold”, the “concentration effective at killing tumor stem cells” value (tumor stem cells) was 0.01 µg/mL and the “decrease of MiaPaca2 tumor volume compared to control” value (MiaPaca2 tumor) was “about 2 fold”. For the same molecule, the “relative tumor volume compared to control” value [10] was “slightly reduced relative tumor volume compared to control”.

For `O=S1(=O)CCN(CN2CCS(=O)(=O)OC2)CO1` [B3], the “effectiveness” value [1] was “effective in treating such cancers” and the “safety for use in patients” value [1] was “safe for use in patients”.

With `O=S1(=O)CCN(CN2CCS(=O)(=O)OC2)CN1` [B2] the “effectiveness” value [1] was “effective in treating such cancers” and the “safety for use in patients” value [1] was “safe for use in patients”.

In the case of `O=S1(=O)CCOCN1CN1COCCS1(=O)=O` [compound 2245], the “effectiveness” value [1] is reported as “effective in treating such cancers” and the “safety for use in patients” value [1] is reported as “safe for use in patients”.

With `O=S1(=O)CCNCN1` [taurultam] the “Cytotoxicity EC50” value [11] was 19.3 µg/mL, the “Cytotoxicity EC50 (μg/ml) 24 h” value ([5]; CSC GBM #3, 24 h) was 10.5 µg/mL and the “Cytotoxicity EC50 (μg/ml) 24 h” value ([5]; CSC GBM #4, 24 h) was 12.5 µg/mL. The “Cytotoxicity EC50 (μg/ml) 24 h” value ([5]; CSC GBM #5, 24 h) was 11 µg/mL, the “Cytotoxicity EC50 (μg/ml) 24 h” value ([5]; CSC GBM #6, 24 h) was 9 µg/mL and the “Cytotoxicity EC50, Mean ± SD” value ([5]; 24 h) was 11 ± 1.4 µg/mL. For the same molecule, the “Cytotoxicity EC50, Mean ± SD” value ([5]; 24 h, listed as Taurultam) was 11 ± 1.4 µg/mL, the “sensitivity of CSCs versus corresponding glioma bulk cells, based on EC50” value [7] was ~2 fold and the “Cytotoxicity EC50” value ([7]; murine CSCs cultured 7 days, 24 hours treatment) was 10 µg/mL. The EC50 [8] was ~50 µg/mL (≈ 367 µM).

In the case of `O=S1(=O)CCN(CN2COCCS2(=O)=O)CN1` [B1], the “effectiveness” value [1] is reported as “effective in treating such cancers” and the “safety for use in patients” value [1] is reported as “safe for use in patients”.

In the case of `CN1COCCS1(=O)=O` [compound 2255], the “effectiveness” value [1] is reported as “effective in treating such cancers” and the “safety for use in patients” value [1] is reported as “safe for use in patients”.

For `Cn1nnc2c(C(N)=O)ncn2c1=O` [temozolamide], the “Cytotoxicity EC50 (μg/ml) 24 h” value ([5]; CSC GBM #3, 24 h) was 84.4 µg/mL, the EC50 ([5]; CSC GBM #3, 24 h, read-out: Cytotoxicity EC50 24 h) was 435 µM and the “Cytotoxicity EC50 (μg/ml) 24 h” value ([5]; CSC GBM #4, 24 h) was 97 µg/mL. The EC50 ([5]; CSC GBM #4, 24 h, read-out: Cytotoxicity EC50 24 h) was 500 µM, the “Cytotoxicity EC50 (μg/ml) 24 h” value ([5]; CSC GBM #5, 24 h) was 48.5 µg/mL and the EC50 ([5]; CSC GBM #5, 24 h, read-out: Cytotoxicity EC50 24 h) was 250 µM. For the same molecule, the “Cytotoxicity EC50 (μg/ml) 24 h” value ([5]; CSC GBM #6, 24 h) was 44 µg/mL, the EC50 ([5]; CSC GBM #6, 24 h, read-out: Cytotoxicity EC50 24 h) was 230 µM and the “Cytotoxicity EC50, Mean ± SD” value ([5]; 24 h) was 68.5 ± 26 µg/mL. The “peak plasma levels measured in patients” value [12] was 13.7 µg/mL.

In the case of `O=S1(=O)CCNCO1` [A1], the “effectiveness” value [1] is reported as “effective in treating such cancers” and the “safety for use in patients” value [1] is reported as “safe for use in patients”.
